Test results published in the supplement of paper PMC10307832.

Columns and labels:
Experiment in all cases: relative viability (nuclei count vs DMSO), 5 days (fraction); higher = more cells survive
GW-2580 = compound: COC1=CC=C(C=C1)COC2=C(C=C(C=C2)CC3=CN=C(N=C3N)N)OC [GW-2580]
In short: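 Five library-drug doses spaced by √10 were pinned onto vehicle-anchored 1536-well plates of lung cancer cell lines that had been kept overnight at 37 °C. Cells went 5 days without medium change, then were fixed, permeabilised and Hoechst-stained together, imaged at 4× and counted by MetaXpress. Viability is the ratio of treated-well to vehicle-well nuclei, taken as a median over plates. Plates required control CV below 25% and at least one doubling.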

GW-2580 + Dasatinib = compound: COC1=CC=C(C=C1)COC2=C(C=C(C=C2)CC3=CN=C(N=C3N)N)OC [GW-2580] + Cc1nc(Nc2ncc(C(=O)Nc3c(C)cccc3Cl)s2)cc(N2CCN(CCO)CC2)n1 [Dasatinib] (partner 0.075 µM)
In short: (§1)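 Lung cancer cell lines in 1536-well plates got either a single drug or a fixed anchor-drug dose together with five library-drug doses (not always all listed) in √10 steps, by pin tool, on the day after seeding. Nuclei were counted after 5 days, and relative viability is the treated-to-vehicle ratio of nuclei counts. Values are medians of duplicate plates.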

Fedratinib + Crizotinib = compound: Cc1cnc(Nc2ccc(OCCN3CCCC3)cc2)nc1Nc1cccc(S(=O)(=O)NC(C)(C)C)c1 [Fedratinib] + C[C@@H](Oc1cc(-c2cnn(C3CCNCC3)c2)cnc1N)c1c(Cl)ccc(F)c1Cl [Crizotinib] (partner 1 µM)
In short: as §1

GW-2580 + Alpelisib = compound: COC1=CC=C(C=C1)COC2=C(C=C(C=C2)CC3=CN=C(N=C3N)N)OC [GW-2580] + Cc1nc(NC(=O)N2CCC[C@H]2C(N)=O)sc1-c1ccnc(C(C)(C)C(F)(F)F)c1 [Alpelisib] (partner 2 µM)
In short: as §1

Fedratinib + Foretinib = compound: Cc1cnc(Nc2ccc(OCCN3CCCC3)cc2)nc1Nc1cccc(S(=O)(=O)NC(C)(C)C)c1 [Fedratinib] + COc1cc2c(Oc3ccc(NC(=O)C4(C(=O)Nc5ccc(F)cc5)CC4)cc3F)ccnc2cc1OCCCN1CCOCC1 [Foretinib] (partner 0.25 µM)
In short: as §1

NCI-H522
relative viability (GW-2580; 0.08 µM): 0.969 | relative viability (GW-2580; 0.8 µM): 0.9 | relative viability (GW-2580; 2.53 µM): 0.957 | relative viability (GW-2580; 8 µM): 0.996 | relative viability (GW-2580 + Dasatinib; first compound 0.08 µM): 0.95 | relative viability (GW-2580 + Dasatinib; first compound 0.8 µM): 0.787 | relative viability (GW-2580 + Dasatinib; first compound 2.53 µM): 0.795 | relative viability (GW-2580 + Dasatinib; first compound 8 µM): 1.02

NCI-H1299
relative viability (GW-2580; 0.08 µM): 1.08 | relative viability (GW-2580; 0.8 µM): 1.03 | relative viability (GW-2580; 2.53 µM): 1 | relative viability (GW-2580; 8 µM): 0.937 | relative viability (Fedratinib + Crizotinib; first compound 0.1 µM): 0.884 | relative viability (Fedratinib + Crizotinib; first compound 0.3162 µM): 0.946 | relative viability (Fedratinib + Crizotinib; first compound 1 µM): 0.94 | relative viability (GW-2580 + Alpelisib; first compound 0.08 µM): 1.2 | relative viability (GW-2580 + Alpelisib; first compound 0.8 µM): 1.04 | relative viability (GW-2580 + Alpelisib; first compound 2.53 µM): 1.04 | relative viability (GW-2580 + Alpelisib; first compound 8 µM): 1.07 | relative viability (Fedratinib + Foretinib; first compound 0.1 µM): 1.06 | relative viability (Fedratinib + Foretinib; first compound 0.3162 µM): 1.09 | relative viability (Fedratinib + Foretinib; first compound 1 µM): 1.07

NCI-H1395
relative viability (GW-2580; 0.08 µM): 0.866 | relative viability (GW-2580; 0.8 µM): 0.979 | relative viability (GW-2580; 2.53 µM): 0.877 | relative viability (GW-2580; 8 µM): 0.935 | relative viability (GW-2580 + Alpelisib; first compound 0.08 µM): 1.04 | relative viability (GW-2580 + Alpelisib; first compound 0.8 µM): 0.941 | relative viability (GW-2580 + Alpelisib; first compound 2.53 µM): 1.03 | relative viability (GW-2580 + Alpelisib; first compound 8 µM): 1.01 | relative viability (GW-2580 + Dasatinib; first compound 0.08 µM): 0.41 | relative viability (GW-2580 + Dasatinib; first compound 0.8 µM): 0.409 | relative viability (GW-2580 + Dasatinib; first compound 2.53 µM): 0.401 | relative viability (GW-2580 + Dasatinib; first compound 8 µM): 0.427 | relative viability (Fedratinib + Foretinib; first compound 0.1 µM): 0.926 | relative viability (Fedratinib + Foretinib; first compound 0.3162 µM): 0.956 | relative viability (Fedratinib + Foretinib; first compound 1 µM): 0.959

NCI-H1623
relative viability (GW-2580; 0.08 µM): 0.947 | relative viability (GW-2580; 0.8 µM): 0.998 | relative viability (GW-2580; 2.53 µM): 0.828 | relative viability (GW-2580; 8 µM): 0.96 | relative viability (GW-2580 + Dasatinib; first compound 0.08 µM): 0.46 | relative viability (GW-2580 + Dasatinib; first compound 0.8 µM): 0.645 | relative viability (GW-2580 + Dasatinib; first compound 2.53 µM): 0.447 | relative viability (GW-2580 + Dasatinib; first compound 8 µM): 0.583 | relative viability (Fedratinib + Foretinib; first compound 0.1 µM): 0.839 | relative viability (Fedratinib + Foretinib; first compound 0.3162 µM): 0.876 | relative viability (Fedratinib + Foretinib; first compound 1 µM): 0.817

NCI-H1648
relative viability (GW-2580; 0.08 µM): 0.82 | relative viability (GW-2580; 2.53 µM): 0.929 | relative viability (GW-2580; 8 µM): 0.888

NCI-H1650
relative viability (GW-2580; 0.08 µM): 1.08 | relative viability (GW-2580; 0.8 µM): 1.11 | relative viability (GW-2580; 2.53 µM): 0.83 | relative viability (GW-2580; 8 µM): 1.05 | relative viability (Fedratinib + Crizotinib; first compound 0.1 µM): 0.706 | relative viability (Fedratinib + Crizotinib; first compound 0.3162 µM): 0.926 | relative viability (Fedratinib + Crizotinib; first compound 1 µM): 0.888 | relative viability (GW-2580 + Dasatinib; first compound 0.08 µM): 0.339 | relative viability (GW-2580 + Dasatinib; first compound 0.8 µM): 0.399 | relative viability (GW-2580 + Dasatinib; first compound 2.53 µM): 0.326 | relative viability (GW-2580 + Dasatinib; first compound 8 µM): 0.296 | relative viability (Fedratinib + Foretinib; first compound 0.3162 µM): 1.1 | relative viability (Fedratinib + Foretinib; first compound 1 µM): 0.885

NCI-H1703
relative viability (GW-2580; 0.08 µM): 0.855 | relative viability (GW-2580; 0.8 µM): 0.991 | relative viability (GW-2580; 2.53 µM): 1.02 | relative viability (GW-2580; 8 µM): 0.919 | relative viability (Fedratinib + Crizotinib; first compound 0.1 µM): 0.629 | relative viability (Fedratinib + Crizotinib; first compound 0.3162 µM): 0.51 | relative viability (Fedratinib + Crizotinib; first compound 1 µM): 0.533 | relative viability (GW-2580 + Alpelisib; first compound 0.08 µM): 0.308 | relative viability (GW-2580 + Alpelisib; first compound 0.8 µM): 0.334 | relative viability (GW-2580 + Alpelisib; first compound 2.53 µM): 0.323 | relative viability (GW-2580 + Alpelisib; first compound 8 µM): 0.331 | relative viability (Fedratinib + Foretinib; first compound 0.1 µM): 0.317 | relative viability (Fedratinib + Foretinib; first compound 0.3162 µM): 0.296 | relative viability (Fedratinib + Foretinib; first compound 1 µM): 0.324

NCI-H1792
relative viability (GW-2580; 0.08 µM): 0.939 | relative viability (GW-2580; 0.8 µM): 1.18 | relative viability (GW-2580; 2.53 µM): 0.92 | relative viability (GW-2580; 8 µM): 0.842 | relative viability (Fedratinib + Crizotinib; first compound 0.1 µM): 1.26 | relative viability (Fedratinib + Crizotinib; first compound 0.3162 µM): 0.972 | relative viability (Fedratinib + Crizotinib; first compound 1 µM): 0.854 | relative viability (GW-2580 + Alpelisib; first compound 0.08 µM): 0.552 | relative viability (GW-2580 + Alpelisib; first compound 0.8 µM): 0.809 | relative viability (GW-2580 + Alpelisib; first compound 2.53 µM): 0.288 | relative viability (GW-2580 + Alpelisib; first compound 8 µM): 0.907 | relative viability (GW-2580 + Dasatinib; first compound 0.08 µM): 1.48 | relative viability (GW-2580 + Dasatinib; first compound 0.8 µM): 0.82 | relative viability (GW-2580 + Dasatinib; first compound 8 µM): 1.01

NCI-H1793
relative viability (GW-2580; 0.08 µM): 0.95 | relative viability (GW-2580; 0.8 µM): 1.05 | relative viability (GW-2580; 2.53 µM): 0.711 | relative viability (GW-2580; 8 µM): 0.852 | relative viability (GW-2580 + Alpelisib; first compound 0.08 µM): 0.659 | relative viability (GW-2580 + Alpelisib; first compound 0.8 µM): 0.679 | relative viability (GW-2580 + Alpelisib; first compound 2.53 µM): 0.634 | relative viability (GW-2580 + Alpelisib; first compound 8 µM): 0.775 | relative viability (GW-2580 + Dasatinib; first compound 0.08 µM): 0.415 | relative viability (GW-2580 + Dasatinib; first compound 0.8 µM): 0.451 | relative viability (GW-2580 + Dasatinib; first compound 2.53 µM): 0.355 | relative viability (GW-2580 + Dasatinib; first compound 8 µM): 0.399 | relative viability (Fedratinib + Foretinib; first compound 0.1 µM): 0.506 | relative viability (Fedratinib + Foretinib; first compound 0.3162 µM): 0.765 | relative viability (Fedratinib + Foretinib; first compound 1 µM): 0.45

NCI-H2342
relative viability (GW-2580; 0.08 µM): 0.921 | relative viability (GW-2580; 0.8 µM): 1.05 | relative viability (GW-2580; 2.53 µM): 0.775 | relative viability (GW-2580; 8 µM): 0.97 | relative viability (GW-2580 + Dasatinib; first compound 0.08 µM): 0.329 | relative viability (GW-2580 + Dasatinib; first compound 0.8 µM): 0.327 | relative viability (GW-2580 + Dasatinib; first compound 2.53 µM): 0.297 | relative viability (GW-2580 + Dasatinib; first compound 8 µM): 0.332 | relative viability (Fedratinib + Foretinib; first compound 0.1 µM): 1.05 | relative viability (Fedratinib + Foretinib; first compound 0.3162 µM): 1.07 | relative viability (Fedratinib + Foretinib; first compound 1 µM): 0.989

SW 900
relative viability (GW-2580; 0.08 µM): 0.767 | relative viability (GW-2580; 0.8 µM): 0.876 | relative viability (GW-2580; 2.53 µM): 0.833 | relative viability (GW-2580; 8 µM): 0.771 | relative viability (GW-2580 + Dasatinib; first compound 0.08 µM): 0.787 | relative viability (GW-2580 + Dasatinib; first compound 0.8 µM): 0.505 | relative viability (GW-2580 + Dasatinib; first compound 2.53 µM): 0.802 | relative viability (GW-2580 + Dasatinib; first compound 8 µM): 0.585 | relative viability (Fedratinib + Foretinib; first compound 0.1 µM): 0.868 | relative viability (Fedratinib + Foretinib; first compound 0.3162 µM): 1.05 | relative viability (Fedratinib + Foretinib; first compound 1 µM): 0.804
